# According to US20250325467A1, “COMPOSITIONS FOR PREVENTING OR TREATING SKIN AGING” (ESTETRA SRL, priority 2021, published 2025):
# “Also recorded” adds a separate entry of the source.
# Assays:
# [1] = system: mouse BMDM (bone marrow derived monocytes); experiment: Immune cell polarization (qPCR of M1/M2 markers), mouse BMDM; assay type: cell-based; conditions: activated mouse BMDM; qPCR markers NOS2, ARG1
# Method: Immune cell polarization was evaluated in vitro using markers for M1/TH-1 (NOS2) and M2/TH-2 (ARG1) phenotype with human monocytes and mouse monocytes (BMDM bone marrow derived monocytes).
# An experiment was conducted to evaluate the anti-inflammatory effects of E4 or vehicle (negative control). qPCR methodology was used to assess the effects of E2 and E4 on immune cell polarization using well validated marker of pro-inflammatory (NOS2 for MI/TH-1 phenotype) and anti-inflammatory (ARG1 for ME/TH-2 phenotype) activity.
# mouse fibroblasts = experiment: Fibroblast monolayer scratch assay, mouse fibroblasts; assay type: cell-based; conditions: mouse fibroblasts (female C57Bl/6); 10^−7M; pilot experiments
# Method: (§1) Confluent wells of both primary keratinocytes and fibroblasts were subjected to a highly validated scratch wounding procedure (using a 1 mL sterile filter tip). Post-scratching, cells were rinsed with DPBS and cell-specific media containing treatments added to each well. Cells were imaged on a ptychographic live cell imaging platform (Livecyte 2™, Phasefocus) for 24-48 hours. Automated tracking of individual unlabeled cells will be combined with 3D cell measurements to quantify a range of wound-relevant cell parameters including scratch closure rate.
# (§2) Dose range finding experiments were conducted with E4 (10^−10M to 10^−6M) and E2 with and without Mitomycin C (MMC, to inhibit proliferation) using vehicle as negative controls.
# [2] = system: Normal Human Epidermal Keratinocytes (NHEKs); experiment: Colonization of a standard acellular area (IBIDI chamber gap closure) by keratinocytes; assay type: cell-based; conditions: vs ethanol control, 6 h and 24 h; for NHEK Proliferation & Migration (colonization of the acellular area): absence of MMC; for NHEK Migration (+MMC) (colonization of the acellular area): presence of MMC
# Method: The study consists in an in vitro assay aiming to evaluate the properties of E4 and E2 at 4 concentrations each on keratinocytes and fibroblasts. In this assay, the measurement of the colonization of a standard acellular surface generated from a confluent monolayer of cells using a dedicated culture device (IBIDI chamber) is performed. The assay is performed in absence and in presence of a proliferation inhibitor to focus on cell proliferation and migration or on migration only, respectively.
# The study was performed using cultures of Normal Human foreskin-derived Epidermal Keratinocytes (NHEKs, Lonza). The cells were grown in serum free Epilife medium (ThermoFisher Scientific) supplemented with Human Keratinocyte Growth Supplement (HKGS, ThermoFisher Scientific) and antibiotics. The cells were maintained in a humidified incubator at 37° C. with a 5% CO2 atmosphere.
# Cells were plated in 2-well silicone inserts with a defined cell free gap (IBIDI chambers; IBIDI GmbH, 80209) that was previously inserted on 12-well culture plates. This culture device allows to create a standardized 500 μm±100 μm cell free gap for monitoring cell colonization. 24 h after seeding, when the culture reached high confluency, cells in the insert were treated, or not, with mitomycin C (MMC) at 10 μg/ml during 2 h. After these 2 hours, the insert was removed, and cells were treated with E2 or E4 in presence or not of MMC for additional 2 h. Then, if appropriate, the culture medium was removed and cells were treated with E2 or E4 for 22 h, in absence of MMC.
# For the assay, keratinocytes were plated in Epilife medium without HKGS and all the treatments were performed in this medium. Fibroblasts were plated in DMEM medium containing only 2,5% of FBS and the treatments were performed in absence of FBS.
# E2 and E4 were applied at 4 concentrations each (10^−7M, 10^−8M, 10^−9M, 10^−10M). In parallel, cells were treated with a positive control (HKGS 1% for human keratinocytes and PDGF-BB at 10 ng/ml for human fibroblasts).
# To monitor cell colonization and to evaluate the gap closure rate, pictures of the gap were taken after different times: at time 0 h, corresponding to the beginning of the treatment with E2 or E4 and to the removal of the culture insert, at time 6 h and at time 24 h (corresponding to the end of the treatments with E2 or E4). Pictures were taken with a microscope Zeiss (Axiover 25-10× objective) and with a camera Invenio2EIII (DeltaPix—Lux-Optic). The colonized areas were quantified from the pictures by the use of the WimAsis platform—WimScratch software. For each insert, 3 pictures were taken at each time. As each condition was performed in triplicates, it means a total of 9 pictures per condition and per time point of acquisition
# [3] = system: primary human epidermal keratinocytes; experiment: Keratinocyte migration scratch assay; assay type: cell-based; conditions: 15% HKGS; E4 10^−10M and 10^−7M; compared with E2
# Method: (§3) Human skin was transferred to the laboratory in holding media (DMEM containing 4% penicillin-streptomycin and Amphotericin B solution) within 30 minutes of collection. Once defatted, the skin was rinsed in HBSS with 4% PSA followed by DPBS without antibiotics, then cut into thin strips and floated on 0.2% Dispase II in DPBS overnight at 4° C., followed by manual separation of the epidermis from the dermis. Primary human epidermal keratinocytes and primary human dermal fibroblasts were then isolated.
# as §1, §2
# [4] = system: primary human dermal fibroblasts; experiment: Fibroblast monolayer scratch assay, human fibroblasts; assay type: cell-based; conditions: human fibroblasts from three female donors; 10^−10M to 10^−6 M; pilot experiments
# Method: as §3, §1, §2
# [5] = in humans; unlike other estrogens; cited from earlier work
structure (smiles),measurement,setting,value
"C[C@]12CC[C@@H]3c4ccc(O)cc4CC[C@H]3[C@@H]1[C@@H](O)[C@@H](O)[C@@H]2O [E4, 1,3,5 (10)-estratrien-3,15alpha,16alpha,17beta-tetrol]",immune cell polarization (monocyte subtype M1/M2),[1],switch from monocyte subtype M1 (pro-inflammatory) to subtype M2 (healing)
same,fibroblast migration / in vitro wound closure,mouse fibroblasts,promotes in vitro wound closure to a similar extent as E2; also recorded: as effective as E2 in promoting fibroblast migration
same,NHEK Proliferation & Migration (colonization of the acellular area),[2]; 10^−7M,significantly increased the colonization of the acellular area; also recorded: significantly increases the surface colonized
same,NHEK Migration (+MMC) (colonization of the acellular area),[2]; 10^−7M,significantly increased the colonization of the acellular area; also recorded: significantly increases the surface colonized
same,NHEK Proliferation & Migration (colonization of the acellular area),[2]; 10^−10M,significantly increased the colonization of the acellular area; also recorded: significantly increases the surface colonized
same,NHEK Migration (+MMC) (colonization of the acellular area),[2]; 10^−10M,significantly increased the colonization of the acellular area; also recorded: significantly increases the surface colonized
same,impact on keratinocyte migration (wound closure),[3],higher than the impact of E2
same,fibroblast migration / in vitro wound closure,[4],promotes in vitro wound closure to a similar extent as E2; also recorded: as effective as E2 in promoting fibroblast migration
same,impact on lipid and triglyceride level,[5],very limited impact on lipid and triglyceride level
